Measured values: patent publication US20100035882A1, “INHIBITION OF PDE2A” (priority 2006, published 2010)
Several values for one entry are separate records, joined by “and”; a condition that tells them apart may be missing. Identical values can stand only once. Entries after “also recorded” stand apart in the source; their conditions may differ.

How the values were obtained:
[1] = system: mice (C57b1/6 strain), isoprenaline-induced cardiac hypertrophy; test: Mouse isoprenaline hypertrophy model, heart weight/body weight ratio; type: in vivo; conditions: for Effect on heart weight:body weight ratio (HW:BW) (in words): with isoprenaline 2 mg/kg/d s.c.
Procedure: (§1) In order to verify that incubation of H9c2 cells with the PDE2A inhibitor BAY 60-7550 also leads to an increase in the intracellular cGMP level and thus has an antihypertrophic effect, the intracellular cGMP content was determined by EIA after stimulation of cGMP synthesis by ANP in the presence of the PDE2A inhibitor BAY 60-7550. […] To verify the in vitro findings, the antihypertrophic effect of the PDE2 inhibitor BAY 60-7550 was investigated in vivo in a mouse hypertrophy model. For this purpose, mice of the C57BL6 strain received subcutaneous administration of 2 mg/kg isoprenaline once a day and, as positive control, 10 mg/kg enalapril administered via the drinking water in addition to the isoprenaline.
FIG. 4: Alteration in the heart weight compared with the body weight (HW:BW) by subcutaneous administration of isoprenaline (2 mg/kg/d) and the influence of enalapril as positive control […] in the drinking water) and of the PDE2A inhibitor BAY 60-7550. The heart weight:body weight ratio as a function of the treatment is shown.
Assay of PDE2A inhibitors for anti-hypertrophic effect in vivo:
The antihypertrophic effect of the PDE2A inhibitor BAY 60-7550 is assayed by using the so-called mouse isoprenaline model [ ]. This involves 8 mice (C57b1/6 strain) per dose group receiving subcutaneous administration of isoprenaline at a dose of 2 mg/kg/d for 5 days, while the control group receives a saline solution as vehicle control. As positive control, in addition to the isoprenaline, the ACE inhibitor enalapril was administered in a dose of 10 mg/kg/d via the drinking water to one group, while two further groups received in addition to the isoprenaline the PDE2A inhibitor BAY 60-7550 administered intraperitoneally with a dose of 10 mg/kg/d. As a measure of the degree of cardiac hypertrophy, the heart weight/body weight (HW:BW) ratio is determined after 5 d, and the relation of the effect of the substances to the effect of isoprenaline is found.

[2] = system: hypertrophy marker MYHCB in H9C2 rat cells; test: Relative expression of hypertrophy marker MYHCB in H9C2 rat cells after vasopressin ± BAY 60-7550 (real-time PCR); type: cell-based
Procedure: FIG. 2: Relative expression of the hypertrophy marker MYHCB in H9C2 rat cells after stimulation by vasopressin±PDE2A inhibitor BAY 60-7550.
The expression of ANP and MYHCB relative to L32 ribosomal protein in H9C2 cells after incubation with vasopressin (0.1 micromol, 1 micromal, 10 micromol) for 72 h is shown. […] (Mean relative expression rE from a duplicate determination).
(§2) The relative expression of PDE2A in H9c2 rat cells is measured by quantifying the mRNA using the real-time polymerase chain reaction. Compared with conventional PCR, the real-time PCR has the advantage of more accurate quantification by introducing an additional, fluorescence-labeled oligonucleotide. This so-called probe contains at the 5′ end the fluorescent dye FAM (6-carboy-fluorescein) and at the 3′ end the fluorescence quencher TAMRA (6-carboxy-tetramethylrhodamine). During the polymerase chain reaction, the fluorescent dye FAM is cleaved off the probe by the 5′-exonuclease activity of the Taq polymerase in the TaqMan PCR, and thus the previously quenched fluorescence signal is obtained. The number of the cycle at which the fluorescence intensity is about 10 standard deviations above the background fluorescence is recorded as the so-called threshold [treshold cyle (Ct value)].
Total RNA is isolated from the H9c2 rat cardiomyocytes from a 6-well (about 4×10^5 cells) using an RNeasy Kit (Qiagen Hilden). 1 μg portions of total RNA per tissue are reacted with 1 unit of DNase I (from Invitrogen) at room temperature for 15 min to remove contamination by genomic DNA. The Dnase I is inactivated by adding 1 μl of EDTA (25 mM) and subsequent heating at 65° C. (10 min).
Subsequently, cDNA synthesis is carried out in the same reaction mixture in accordance with the instruction for the “SUPERSCRIPT-II RT cDNA synthesis kit” (from Invitrogen), and the reaction volume is made up to 200 μl with distilled water. For the PCR, 7.5 μl of primer and probe mixture and 12.5 μl of TaqMan reaction solution (qPCR Mastermix, from Eurogentec) are added to 5 μl portions of the diluted cDNA solution. The final concentration of the primers is 300 nM in each case, and that of the probe is 150 nM. The sequence of the forward and reverse primer for the rat PDE2A is: 5′-[…]-3′ (SEQ ID NO: 3) and 5′-[…]-3′ (SEQ ID NO: 4), and the sequence of the fluorescent probe is 5′-6FAM-[…]-TAMRA-3′ (SEQ ID NO: 5). The sequence of the forward and reverse primer for r-MYHCB is: 5′-[…]-3′ (SEQ ID NO: 6) and 5′-[…]-3′ (SEQ ID NO: 7), and the sequence of the fluorescent probe is 5′-6FAM-[…]-TAMRA-3′ (SEQ ID NO: 8).
The PCR takes place on an ABI Prism SDS-7700 apparatus (from Applied Biosystems) in accordance with the manufacturer's instructions. 40 cycles are carried out in this case. The Ct (see above) which is obtained for the respective gene in the relevant cDNA corresponds to the cycle in which the fluorescence intensity of the liberated probe is about 10 standard deviations above the background signal. A lower Ct value thus means an earlier start of amplification, i.e. the original sample contains more mRNA. To compensate for any variations in the cDNA synthesis, the expression of a so-called “housekeeping gene”, which should always be expressed to the same extent irrespective of the treatment of the cells, is also analyzed in all the investigated samples. L32 ribosomal protein is used to standardize PDE2A expression in H9c2 cells. The sequence of the forward and reverse primer for rat L32 is 5′-[…]-3′ (SEQ ID NO: 9), and 5′-[…]-3′ (SEQ ID NO: 10), and the sequence of the probe is 5′-6FAM-[…]-TAMRA-3′ (SEQ ID NO: 11). The data are analyzed in the following way: the dCt value is calculated for each RNA. The dCt value is the difference between the Ct values for the candidate gene (i.e.: MYHCB or PDE2A) and the Ct value of the housekeeping gene in the respective tissue. […]

[3] = system: PDE2A-mRNA in H9c2 rat cardiomyocytes; test: Relative expression of PDE2A-RNA in H9c2 cells after arginine-vasopressin (real-time PCR); type: cell-based; conditions: Vasopressin 1 μM, 72 h, triplicate mean, control 159.73
Text: For this purpose, the rat cardiomyocyte cell line H9c2 (ATCC number: CRL-1446) was exposed to a hypertrophic stimulus by arginine-vasopressin which is expressed inter alia in an increased expressed of marker genes for cardiac hypertrophy such as ANP (atrial natriuretic peptide) and MYHCB (myosin heavy chain beta-subunit). An increased expression of the cGMP-hydrolyzing PDE2A is able to reduce the intracellular cGMP level of the cardiomyocytes and thus suppress the antihypertrophic effect of cGMP [3,4]. […]
as §2, with “value)]. […]” for “value)].”

[4] = system: intracellular cGMP in H9c2 rat cardiomyocytes; test: Intracellular cGMP content in H9c2 cells after ANP stimulation (EIA); type: cell-based; conditions: 15 min, FIG. 3
Procedure: as §1
FIG. 3: Change in the intracellular cGMP concentration in H9c2 rat cardiomyocytes after stimulation with ANP in the presence of various concentrations of the PDE2A inhibitor BAY 60-7550. The cGMP content in the cells after incubation with ANP and the stated dosages of the PDE2A inhibitor BAY 60-7550 for 15 min is shown.
Determination of the cGMP Content in H9c2 Cells after Preincubation with the PDE2A Inhibitor BAY 60-7550
The intracellular cGMP content in H9c2 cells was determined with the Biotrak (EIA) Immunoassay from Amersham (catalog No. RPN 226) in accordance with the manufacturer's protocol. […] The fluorescence is measured at 450/570 nm in a Tecan Spectrafluor photometer. […]

## CC(C)NCC(O)c1ccc(O)c(O)c1 (stereo not shown) [isoprenaline, reference compound]
[1]; isoprenaline 2 mg/kg/d s.c. alone, hypertrophic stimulus
  Effect on heart weight in relation to body weight (in words): increases the weight of the animal's heart in relation to the body weight

## CCOC(=O)[C@H](CCc1ccccc1)N[C@@H](C)C(=O)N1CCC[C@H]1C(=O)O [enalapril, reference compound]
[1]; enalapril 10 mg/kg via drinking water, positive control
  Effect on heart weight:body weight ratio (HW:BW) (in words): marked reduction in the ratio of the weight of the heart to the body weight

## NC(=O)CC[C@@H]1NC(=O)[C@H](Cc2ccccc2)NC(=O)[C@H](Cc2ccc(O)cc2)NC(=O)[C@@H](N)CSSC[C@@H](C(=O)N2CCC[C@H]2C(=O)N[C@@H](CCCN=C(N)N)C(=O)NCC(N)=O)NC(=O)[C@H](CC(N)=O)NC1=O [Vasopressin, arginine-vasopressin, reference compound]
[2]; Vasopressin 1 μM alone, 72 h, H9C2 cells
  rE (expression of MYHCB relative to L32): 19.43 and 15.03
[2]; Vasopressin 1 μM alone, 72 h, duplicate mean, control 0.50
  MW (mean rE of MYHCB): 17.23
[3]
  MW (mean rE of PDE2A): 613.64

## COc1ccc(Cc2nn3c(C(CCCc4ccccc4)C(C)O)nc(C)c3c(=O)[nH]2)cc1OC (stereo not shown) [BAY 60-7550, 2-(3,4-dimethoxybenzyl)-7-[1-(1-hydroxyethyl)-4-phenylbutyl]-5-methylimidazo[5,1-f][1,2,4]triazin-4(3H)-one]
[2]; H9c2 cells, vasopressin stimulation, FIG. 2
  Effect on vasopressin-induced increase of hypertrophy marker gene MYHCB (in words): dose-dependently suppresses the induction of the hypertrophy marker MYHCB by vasopressin; also recorded: dose-dependent suppression of the increase in the hypertrophy marker gene MYHCB
[2]; Vasopressin 1 μM + 0.1 μM BAY 60-7550, 72 h
  rE (expression of MYHCB relative to L32): 9.00 and 15.89
[2]; Vasopressin 1 μM + 0.1 μM BAY 60-7550, duplicate mean, vasopressin alone 17.23
  MW (mean rE of MYHCB): 12.44
[2]; Vasopressin 1 μM + 1 μM BAY 60-7550, duplicate mean, vasopressin alone 17.23
  MW (mean rE of MYHCB): 8.54
[2]; Vasopressin 1 μM + 10 μM BAY 60-7550, 72 h
  rE (expression of MYHCB relative to L32): 4.56 and 3.01
[2]; Vasopressin 1 μM + 10 μM BAY 60-7550, duplicate mean, vasopressin alone 17.23
  MW (mean rE of MYHCB): 3.79
[1]; BAY 60-7550 10 mg/kg i.p., 5 days, two groups, FIG. 4
  Effect on heart weight:body weight ratio (HW:BW) (in words): able to suppress the isoprenaline-induced increase in heart weight almost as well as the positive control enalapril; also recorded: marked reduction in the ratio of the weight of the heart to the body weight
[4]
  Effect on intracellular cGMP content (in words): dose-dependently and synergistically increases the intracellular cGMP level; also recorded: dose-dependently increases the intracellular cGMP content
